Laboratory results as given in ChEMBL document CHEMBL3120136 (J Med Chem, 2014).
*1 amine or outer side, *2 acyl side, *3 side chain or, on linkers, in order; H or OH if unused. Where a SMILES comes first, the peptide text is derived from it. Side-chain parts run from the residue outwards. [ ]: non-standard residue; d: D form. The star is where a group is joined. Ac3c(1R,2S-2-vinyl) = C=C[C@@H]1C[C@]1(N)C(=O)O; NH(1-naphthylmethyl) = c1ccc2c(CN*)cccc2c1; NH(1-naphthyl) = c1ccc2c(N*)cccc2c1; Hyp = O=C(O)[C@@H]1C[C@@H](O)CN1; Chg = N[C@H](C(=O)O)C1CCCCC1; X2 = c1ccc(C2CN(*)CCO2)cc1; X3 = c1ccc(C2CCN(*)C2)cc1; Morpholide = C1CN(*)CCO1; Piperidide = C1CCN(*)CC1; Pyrrolidide = C1CCN(*)C1; X4 = c1ccc(C2COCCN2*)cc1; X5 = c1ccc2c(c1)CN(*)C2; X1 = c1ccc2c(c1)CCN2*; CO = O=C([*:1])[*:2]

Experiments:
[1] = test system: Hepatitis C virus; assay: Antiviral activity against Hepatitis C virus infected in human HuH7 cells assessed as inhibition of HCV subgenomic replicon replication after 72 hrs by ELISA; assay type: functional, organism-based, Hepacivirus hominis, Huh-7; settings: Hepatitis C virus, Huh-7, 72 h; read-out: EC50
[2] = Inhibition of Hepatitis C virus full-length NS3/4A protease assessed as quenched-fluorogenic RET-S1 substrate cleavage incubated for 10 mins prior to substrate addition by FRET analysis; parameters: species or system Hepacivirus hominis

| SMILES | EC50 [1] | IC50 [2] |
| --- | --- | --- |
| CC(C)(C)OC(=O)N[C@H]1CCCCC/C=C\[C@@H]2C[C@@]2(C(=O)NS(=O)(=O)C(C)(C)C)NC(=O)[C@@H]2C[C@@H](OC(=O)N3Cc4ccccc4C3)CN2C1=O | 194 nM | 37 nM |
| CC(C)(C)OC(=O)N[C@H]1CCCCC/C=C\[C@@H]2C[C@@]2(C(=O)NS(=O)(=O)C2CC2)NC(=O)[C@@H]2C[C@@H](OC(=O)N3Cc4ccc(F)cc4C3)CN2C1=O | 4 nM | 3 nM |
| CC(C)(C)OC(=O)N[C@H]1CCCCC/C=C\[C@@H]2C[C@@]2(C(=O)O)NC(=O)[C@@H]2C[C@@H](OC(=O)N3Cc4cccc(F)c4C3)CN2C1=O | 1270 nM | 10 nM |
| C=C[C@@H]1C[C@]1(NC(=O)[C@@H]1C[C@@H](OC(=O)N2CCC(c3ccccc3)C2)CN1C(=O)[C@@H](NC(=O)[C@@H](NC(C)=O)C1CCCCC1)C(C)C)C(=O)O (stereo partly drawn) (Ac-[Chg]V[Hyp]([CO-X3])[Ac3c(1R,2S-2-vinyl)]-OH) |  | 735 nM |
| CC(C)(C)OC(=O)N[C@H]1CCCCC/C=C\[C@@H]2C[C@@]2(C(=O)O)NC(=O)[C@@H]2C[C@@H](OC(=O)N3Cc4ccc(Cl)cc4C3)CN2C1=O | 3160 nM | 110 nM |
| CC(C)(C)OC(=O)N[C@H]1CCCCC/C=C\[C@@H]2C[C@@]2(C(=O)O)NC(=O)[C@@H]2C[C@@H](OC(=O)N3Cc4c(Cl)ccc(Cl)c4C3)CN2C1=O | 1480 nM | 21 nM |
| CC(C)(C)OC(=O)N[C@H]1CCCCC/C=C\[C@@H]2C[C@@]2(C(=O)NS(=O)(=O)N2CCOCC2)NC(=O)[C@@H]2C[C@@H](OC(=O)N3Cc4ccccc4C3)CN2C1=O | 52 nM | 4.4 nM |
| CC(C)(C)OC(=O)N[C@H]1CCOCCCC[C@@H]2C[C@@]2(C(=O)NS(=O)(=O)C2CC2)NC(=O)[C@@H]2C[C@@H](OC(=O)N3Cc4cccc(F)c4C3)CN2C1=O | 19 nM | 0.7 nM |
| CN1CC/C=C\[C@@H]2C[C@@]2(C(=O)NS(=O)(=O)C2CC2)NC(=O)[C@@H]2C[C@@H](OC(=O)N3Cc4cccc(F)c4C3)CN2C(=O)[C@@H](NC(=O)OC(C)(C)C)CC1 | 837 nM | 7 nM |
| CC(C)(C)OC(=O)N[C@H]1CCCOCCC[C@@H]2C[C@@]2(C(=O)NS(=O)(=O)C2CC2)NC(=O)[C@@H]2C[C@@H](OC(=O)N3Cc4cccc(F)c4C3)CN2C1=O | 254 nM | 1 nM |
| CC(C)(C)OC(=O)N[C@H]1CCCCC/C=C\[C@@H]2C[C@@]2(C(=O)NS(=O)(=O)C2CC2)NC(=O)[C@@H]2C[C@@H](OC(=O)N3CCc4ccc(Cl)cc4C3)CN2C1=O | 65 nM | 4.1 nM |
| COCC1(S(=O)(=O)NC(=O)[C@@]23C[C@H]2/C=C\CCCCC[C@H](NC(=O)OC(C)(C)C)C(=O)N2C[C@H](OC(=O)N4Cc5ccccc5C4)C[C@H]2C(=O)N3)CC1 | 13 nM | 7.7 nM |
| CC(C)(C)OC(=O)N[C@H]1COCCCCC[C@@H]2C[C@@]2(C(=O)NS(=O)(=O)C2CC2)NC(=O)[C@@H]2C[C@@H](OC(=O)N3Cc4cccc(F)c4C3)CN2C1=O | 12.4 nM | 1.2 nM |
| CC(C)(C)OC(=O)N[C@H]1CCCCC/C=C\[C@@H]2C[C@@]2(C(=O)NS(=O)(=O)C2CC2)NC(=O)[C@@H]2C[C@@H](NC(=O)c3nc4ccccc4[nH]3)CN2C1=O | 614 nM | 6.4 nM |
| CC(C)(C)OC(=O)N[C@H]1CCCCC/C=C\[C@@H]2C[C@@]2(C(=O)NS(=O)(=O)C2CC2)NC(=O)[C@@H]2C[C@@H](OC(=O)N3Cc4cccc(Br)c4C3)CN2C1=O | 49 nM | 1.1 nM |
| O=C(N[C@H]1CCCCC/C=C\[C@@H]2C[C@@]2(C(=O)NS(=O)(=O)C2CC2)NC(=O)[C@@H]2C[C@@H](OC(=O)N3Cc4ccccc4C3)CN2C1=O)O[C@@H]1CCOC1 | 107 nM | 2.8 nM |
| CC(C)(C)OC(=O)N[C@H]1CCC(F)(F)CCCC[C@@H]2C[C@@]2(C(=O)NS(=O)(=O)C2CC2)NC(=O)[C@@H]2C[C@@H](OC(=O)N3Cc4cccc(F)c4C3)CN2C1=O | 6.8 nM | 0.8 nM |
| CC(C)(C)OC(=O)N[C@H]1CCCCC/C=C\[C@@H]2C[C@@]2(C(=O)NS(=O)(=O)C2CC2)NC(=O)[C@@H]2C[C@@H](OC(=O)N3CCc4cc(F)ccc4C3)CN2C1=O | 11 nM | 2 nM |
| CC(C)(C)OC(=O)N[C@H]1CCCCC/C=C\[C@@H]2C[C@@]2(C(=O)NS(=O)(=O)C2CC2)NC(=O)[C@@H]2C[C@@H](OC(=O)N3CCc4cccc(F)c4C3)CN2C1=O | 12 nM | 1.1 nM |
| CC(C)(C)OC(=O)N[C@H]1CCCC(F)(F)C/C=C\[C@@H]2C[C@@]2(C(=O)NS(=O)(=O)C2CC2)NC(=O)[C@@H]2C[C@@H](OC(=O)N3Cc4cccc(F)c4C3)CN2C1=O | 44 nM | 0.5 nM |
| CC(C)(C)OC(=O)N[C@H]1CCCCC/C=C\[C@@H]2C[C@@]2(C(=O)NS(=O)(=O)C2CC2)NC(=O)[C@@H]2C[C@@H](OC(=O)N3Cc4ccccc4C(C)(C)C3)CN2C1=O | 7.7 nM | 0.8 nM |
| CC(C)(C)OC(=O)N[C@H]1CCCCC/C=C\[C@@H]2C[C@@]2(C(=O)NS(=O)(=O)C2CC2)NC(=O)[C@@H]2C[C@@H](OC(=O)N3Cc4c(Cl)ccc(Cl)c4C3)CN2C1=O | 7.3 nM | 1.7 nM |
| CC(C)Nc1ccc2c(c1)CN(C(=O)O[C@@H]1C[C@H]3C(=O)N[C@]4(C(=O)NS(=O)(=O)C5CC5)C[C@H]4/C=C\CCCCC[C@H](NC(=O)OC(C)(C)C)C(=O)N3C1)C2 | 11 nM | 4.3 nM |
| C=C[C@@H]1C[C@]1(NC(=O)[C@@H]1C[C@@H](OC(=O)N2CCCC2)CN1C(=O)[C@@H](NC(=O)[C@@H](NC(C)=O)C1CCCCC1)C(C)C)C(=O)O (Ac-[Chg]V[Hyp]([CO-Pyrrolidide])[Ac3c(1R,2S-2-vinyl)]-OH) |  | 14900 nM |
| C=C[C@@H]1C[C@]1(NC(=O)[C@@H]1C[C@@H](OC(=O)N2CCOC(c3ccccc3)C2)CN1C(=O)[C@@H](NC(=O)[C@@H](NC(C)=O)C1CCCCC1)C(C)C)C(=O)O (stereo partly drawn) (Ac-[Chg]V[Hyp]([CO-X2])[Ac3c(1R,2S-2-vinyl)]-OH) |  | 4770 nM |
| C=C[C@@H]1C[C@]1(NC(=O)[C@@H]1C[C@@H](OC(=O)Nc2cccc3ccccc23)CN1C(=O)[C@@H](NC(=O)[C@@H](NC(C)=O)C1CCCCC1)C(C)C)C(=O)O (Ac-[Chg]V[Hyp]([CO-NH(1-naphthyl)])[Ac3c(1R,2S-2-vinyl)]-OH) |  | 818 nM |

More lines, now with the values ahead:

| EC50 [1] | IC50 [2] | SMILES |
| --- | --- | --- |
| 156 nM | 6.6 nM | CC(C)(C)OC(=O)N[C@H]1CCCCC/C=C\[C@@H]2C[C@@]2(C(=O)NS(C)(=O)=O)NC(=O)[C@@H]2C[C@@H](OC(=O)N3Cc4ccccc4C3)CN2C1=O |
| 4.1 nM | 0.2 nM | CC(C)(C)OC(=O)N[C@H]1CCCCC/C=C\[C@@H]2C[C@@]2(C(=O)NS(=O)(=O)C2CC2)NC(=O)[C@@H]2C[C@@H](OC(=O)N3Cc4cccc(N)c4C3)CN2C1=O |
| 22.5 nM | 1.5 nM | CC(C)(C)OC(=O)N[C@H]1CCCCCC[C@@H]2C[C@@]2(C(=O)NS(=O)(=O)C2CC2)NC(=O)[C@@H]2C[C@@H](OC(=O)N3Cc4cccc(F)c4C3)CN2C1=O |
| 9.5 nM | 1.4 nM | CC(C)(C)OC(=O)N[C@H]1CCCCC/C=C\[C@@H]2C[C@@]2(C(=O)NS(=O)(=O)C2CC2)NC(=O)[C@@H]2C[C@@H](NC(=O)c3sc4cccc(Cl)c4c3Cl)CN2C1=O |
| 45 nM | 11 nM | CN(C)c1ccc(S(=O)(=O)NC(=O)[C@@]23C[C@H]2/C=C\CCCCC[C@H](NC(=O)OC(C)(C)C)C(=O)N2C[C@H](OC(=O)N4Cc5ccccc5C4)C[C@H]2C(=O)N3)cc1 |
| 27 nM | 2.5 nM | CC(C)(C)OC(=O)N[C@H]1CCCCC/C=C\[C@@H]2C[C@@]2(C(=O)NS(=O)(=O)c2cccs2)NC(=O)[C@@H]2C[C@@H](OC(=O)N3Cc4ccccc4C3)CN2C1=O |
| 2.2 nM | 3 nM | CC(C)(C)OC(=O)N[C@H]1CCCCC/C=C\[C@@H]2C[C@@]2(C(=O)NS(=O)(=O)C2CC2)NC(=O)[C@@H]2C[C@@H](OC(=O)N3Cc4cccc(Cl)c4C3)CN2C1=O |
|  | 835 nM | C=C[C@@H]1C[C@]1(NC(=O)[C@@H]1C[C@@H](OC(=O)NCc2cccc3ccccc23)CN1C(=O)[C@@H](NC(=O)[C@@H](NC(C)=O)C1CCCCC1)C(C)C)C(=O)O (Ac-[Chg]V[Hyp]([CO-NH(1-naphthylmethyl)])[Ac3c(1R,2S-2-vinyl)]-OH) |
| 43 nM | 2.1 nM | CC(C)(C)OC(=O)N[C@H]1CCCCC/C=C\[C@@H]2C[C@@]2(C(=O)NS(=O)(=O)C2CC2)NC(=O)[C@@H]2C[C@@H](OC(=O)N3CCc4cccc(Cl)c4C3)CN2C1=O |
|  | 186 nM | C=C[C@@H]1C[C@]1(NC(=O)[C@@H]1C[C@@H](OC(=O)N2Cc3ccccc3C2)CN1C(=O)[C@@H](NC(=O)[C@@H](NC(C)=O)C1CCCCC1)C(C)C)C(=O)O (Ac-[Chg]V[Hyp]([CO-X5])[Ac3c(1R,2S-2-vinyl)]-OH) |
|  | 4290 nM | C=C[C@@H]1C[C@]1(NC(=O)[C@@H]1C[C@@H](OC(=O)N2CCCCC2)CN1C(=O)[C@@H](NC(=O)[C@@H](NC(C)=O)C1CCCCC1)C(C)C)C(=O)O (Ac-[Chg]V[Hyp]([CO-Piperidide])[Ac3c(1R,2S-2-vinyl)]-OH) |
|  | 5500 nM | C=C[C@@H]1C[C@]1(NC(=O)[C@@H]1C[C@@H](OC(=O)N2CCOCC2c2ccccc2)CN1C(=O)[C@@H](NC(=O)[C@@H](NC(C)=O)C1CCCCC1)C(C)C)C(=O)O (stereo partly drawn) (Ac-[Chg]V[Hyp]([CO-X4])[Ac3c(1R,2S-2-vinyl)]-OH) |
|  | 47100 nM | C=C[C@@H]1C[C@]1(NC(=O)[C@@H]1C[C@@H](OC(=O)N2CCOCC2)CN1C(=O)[C@@H](NC(=O)[C@@H](NC(C)=O)C1CCCCC1)C(C)C)C(=O)O (Ac-[Chg]V[Hyp]([CO-Morpholide])[Ac3c(1R,2S-2-vinyl)]-OH) |
|  | 200 nM | C=C[C@@H]1C[C@]1(NC(=O)[C@@H]1C[C@@H](OC(=O)N2CCc3ccccc32)CN1C(=O)[C@@H](NC(=O)[C@@H](NC(C)=O)C1CCCCC1)C(C)C)C(=O)O (Ac-[Chg]V[Hyp]([CO-X1])[Ac3c(1R,2S-2-vinyl)]-OH) |
